Key:
plasma protein = conditions: background statement; cited from earlier work
[1] = test system: rats with focal cerebral ischemia-reperfusion injury; assay: rat focal cerebral ischemia-reperfusion model (internal carotid artery suture method), area of cerebral infarction by TTC staining; assay type: in vivo, Sprague-Dawley (SD) rats; conditions: for Area of cerebral infarction (%): single i.v. dose after reperfusion, 24 h after ischemia, (+)-2-borneol 1 mg/kg; for area of cerebral infarction of MCAO rats (in words) / neurological deficits of MCAO rats (in words): summary, tail vein, cilostazol 1-18 mg/kg, (+)-2-borneol 0.27-5 mg/kg
Method: After the cerebral ischemia model was established, the animals were assigned to each group in a single-blind manner with equal probability. After reperfusion, the animals were immediately administered intravenously with the drugs once. The animals in the model group were administered with an equal volume of normal saline. The animals were sacrificed 24 hours after cerebral ischemia, and their brains were taken out, stained, and photographed for determining the area of cerebral infarction. The rat focal cerebral ischemia-reperfusion model was established by internal carotid artery suture method. The limbs (hind limbs above the knee joint and forelimbs below the wrist joint) and head of an anesthetized rat were tightened with rubber bands. The animal was fixed on an operating table in supine position, and was shaved with an animal shaver from the head to the chest, and the skin was disinfected with alcohol. The neck of the rat was cut at the midline, and the subcutaneous tissue was bluntly separated. The thin layer of fascia on the surface of the anterior triangle of the neck was separated, the lower side-lower edge of the clavicular hyoid muscle was pulled up, and the longitudinally pulsating artery parallel to this muscle can be seen. The arterial shell was opened, and the bifurcation of the right carotid artery was exposed. The right common carotid artery, external carotid artery and internal carotid artery were separated. The vagus nerve was gently stripped, and the external carotid artery was ligated and cut. The proximal end of the common carotid artery was clamped. An incision was made at the distal end from the ligature of the external carotid artery, and was inserted with a suture line, which was passed through the bifurcation of the common carotid artery into the internal carotid artery, and then was inserted slowly until reaching slight resistance (approximately 20 mm from the bifurcation), so as to block all blood supply to the middle cerebral artery. The suture line was slightly fixed below the incision of the external carotid artery with silk thread. The silk thread clamping the proximal end of the common carotid artery was loosened. A gauze soaked in sterile saline was covered on the wound, and the rat was placed on a heat preservation pad to keep warm. 2.0 h after cerebral ischemia on the right side, the suture line was pulled out gently to restore the blood supply for reperfusion. The external carotid artery was ligated with silk thread fixing the suture line. The skin was stitched, and disinfected. The rats were placed in clean feed, and their general condition and respiration were observed until they woke up from anesthesia. The rats were provided with food and water, and commonly reared. The animals were subjected to evaluation of neurological deficit symptoms and then sacrificed with CO2. The brain was taken out by cutting off head. The olfactory bulb, cerebellum and lower brainstem were removed. The blood on the surface of the brain was washed with normal saline, and the residual water on the surface was removed. The brain was placed at -20° C. for 20 min, then taken out, immediately cut to a coronal section vertically downward at the crossing plane of the line of sight, and sliced backward every 2 mm. The brain slices were incubated in 1% TTC staining solution (at 37° C. for 30 min). The normal brain tissue was stained into dark red, and the ischemic brain tissue was stained into pale white. After being washed with normal saline, the brain slices were quickly arranged in a row from front to back, removed off the residual water on the surface, and photographed. Calculation of area of cerebral infarction: The photos were processed by Image J software, and the corresponding area of left brain and non-infarction area of right brain were calculated according to the formula, so that the percentage of the area of infarction was calculated. […]

[2] = test system: mice with focal cerebral ischemia-reperfusion injury; assay: mouse focal cerebral ischemia-reperfusion model (internal carotid artery suture method), area of cerebral infarction by TTC staining; assay type: in vivo, C57BL/6J mice; conditions: summary; intravenous; cilostazol 10-19.46 mg/kg, (+)-2-borneol 0.54-10 mg/kg
Method: The animals were subjected to evaluation of neurological deficit symptoms and then sacrificed with CO2. The brain was taken out by cutting off head. The olfactory bulb, cerebellum and lower brainstem were removed. The blood on the surface of the brain was washed with normal saline, and the residual water on the surface was removed. The brain was placed at −20° C. for 20 min, then taken out, immediately cut to a coronal section vertically downward at the crossing plane of the line of sight, and sliced backward every 2 mm. The brain slices were incubated in 1% TTC staining solution (at 37° C. for 30 min). The normal brain tissue was stained into dark red, and the ischemic brain tissue was stained into pale white. After being washed with normal saline, the brain slices were quickly arranged in a row from front to back, removed off the residual water on the surface, and photographed. Calculation of area of cerebral infarction: The photos were processed by Image J software, and the corresponding area of left brain and non-infarction area of right brain were calculated according to the formula, so that the percentage of the area of infarction was calculated. The experimental animals were divided into 4 groups, a model group and three groups of compositions of cilostazol/(+)-2-borneol (respectively a group of cilostazol 10 mg/kg+(+)-2-borneol 10 mg/kg in 1:1: a group of cilostazol 15 mg/kg+(+)-2-borneol 5 mg/kg in 3:1; a group of cilostazol 18 mg/kg+(+)-2-borneol 2 mg/kg in 9:1, and each composition was administered at a total amount of 20 mg/kg). After the cerebral ischemia model was established, the animals were assigned to each group in a single-blind manner with equal probability. After reperfusion, the animals were immediately administered intravenously with the drugs once. The animals in the model group were administered with an equal volume of normal saline. The animals were sacrificed 24 hours after cerebral ischemia, and their brains were taken out, stained, and photographed for determining the area of cerebral infarction. Establishment of focal cerebral ischemia-reperfusion model: The mouse focal cerebral ischemia-reperfusion model was established by internal carotid artery suture method. An anesthetized mouse was fixed on an operating table in a supine position. The neck of the mice was cut at the midline, and the subcutaneous tissue was bluntly separated. The right common carotid artery, external carotid artery, and internal carotid artery were separated. […]

[3] = Example 1, cilostazol 1 mg/kg (p=0.06), (+)-2-borneol 1 mg/kg (p<0.01), composition 1+1 mg/kg (p<0.001), vs model group
[4] = Example 1, cilostazol 1 mg/kg, composition 2 mg/kg (1+1), model group 39.73 ± 7.62
[5] = Example 2, cilostazol 9 mg/kg (p=0.024), (+)-2-borneol 1 mg/kg (p=0.017), composition 9+1 mg/kg (p=0.000)
[6] = Example 2, cilostazol 9 mg/kg, composition 10 mg/kg (9+1), model group 38.25 ± 7.87
[7] = Example 3, cilostazol 18 mg/kg (p=0.001), (+)-2-borneol 1 mg/kg (p=0.002), composition 18+1 mg/kg (p=0.000)
[8] = Example 3, cilostazol 18 mg/kg, composition 19 mg/kg (18+1), model group 40.32 ± 7.65

SMILES | binding rate to plasma protein (plasma protein) | effect on the area of cerebral infarction (in words) [1, 3] | Area of cerebral infarction (%) [1, 4] [%] | effect on the area of cerebral infarction (in words) [1, 5] | Area of cerebral infarction (%) [1, 6] [%] | effect on the area of cerebral infarction (in words) [1, 7] | Area of cerebral infarction (%) [1, 8] [%] | area of cerebral infarction of MCAO rats (in words) [1] | neurological deficits of MCAO rats (in words) [1] | area of cerebral infarction in MCAO mice (in words) [2] | neurological deficits in MCAO mice (in words) [2]
O=C1CCc2cc(OCCCCc3nnnn3C3CCCCC3)ccc2N1 [Cilostazol] | about 95% | tended to alleviate cerebral ischemic injury, but showed no statistical difference | 33.78 ± 5.74 | significantly reduce the area of cerebral infarction | 30.00 ± 8.43 | significantly reduce the area of cerebral infarction | 27.84 ± 7.50 | reduce the area of cerebral infarction | significantly ameliorate the neurological deficits | reduce the area of cerebral infarction | significantly ameliorate the neurological deficits
CC1(C)C2CCC1(C)C(O)C2 (single isomer, unassigned; (+)) [(+)-2-Borneol] |  | significantly reduce the area of cerebral infarction | 28.28 ± 8.06 | significantly reduce the area of cerebral infarction | 28.62 ± 9.87 | significantly reduce the area of cerebral infarction | 29.97 ± 7.02 | reduce the area of cerebral infarction | significantly ameliorate the neurological deficits | reduce the area of cerebral infarction | significantly ameliorate the neurological deficits

From patent publication US20240082234A1, “APPLICATION OF CILOSTAZOL-CONTAINING COMPOSITION IN PREPARING DRUG FOR TREATING CEREBROVASCULAR DISEASE” (NEURODAWN PHARMACEUTICAL CO., LTD., priority 2021, published 2024)
